The results in this text go back to ChEMBL document CHEMBL5465560, “Selectivity Literature for EUbOPEN Chemogenomic Library” (2024).

Experiment [1] addresses Tyrosine-protein kinase ABL2 (Homo sapiens, UniProt P42684). The conditions noted are these: at 10 µM.
The target of experiment [2] is T1, Mitogen-activated protein kinase kinase kinase 15 (Homo sapiens) (UniProt Q6ZN16).
T1 sequence (whole entry): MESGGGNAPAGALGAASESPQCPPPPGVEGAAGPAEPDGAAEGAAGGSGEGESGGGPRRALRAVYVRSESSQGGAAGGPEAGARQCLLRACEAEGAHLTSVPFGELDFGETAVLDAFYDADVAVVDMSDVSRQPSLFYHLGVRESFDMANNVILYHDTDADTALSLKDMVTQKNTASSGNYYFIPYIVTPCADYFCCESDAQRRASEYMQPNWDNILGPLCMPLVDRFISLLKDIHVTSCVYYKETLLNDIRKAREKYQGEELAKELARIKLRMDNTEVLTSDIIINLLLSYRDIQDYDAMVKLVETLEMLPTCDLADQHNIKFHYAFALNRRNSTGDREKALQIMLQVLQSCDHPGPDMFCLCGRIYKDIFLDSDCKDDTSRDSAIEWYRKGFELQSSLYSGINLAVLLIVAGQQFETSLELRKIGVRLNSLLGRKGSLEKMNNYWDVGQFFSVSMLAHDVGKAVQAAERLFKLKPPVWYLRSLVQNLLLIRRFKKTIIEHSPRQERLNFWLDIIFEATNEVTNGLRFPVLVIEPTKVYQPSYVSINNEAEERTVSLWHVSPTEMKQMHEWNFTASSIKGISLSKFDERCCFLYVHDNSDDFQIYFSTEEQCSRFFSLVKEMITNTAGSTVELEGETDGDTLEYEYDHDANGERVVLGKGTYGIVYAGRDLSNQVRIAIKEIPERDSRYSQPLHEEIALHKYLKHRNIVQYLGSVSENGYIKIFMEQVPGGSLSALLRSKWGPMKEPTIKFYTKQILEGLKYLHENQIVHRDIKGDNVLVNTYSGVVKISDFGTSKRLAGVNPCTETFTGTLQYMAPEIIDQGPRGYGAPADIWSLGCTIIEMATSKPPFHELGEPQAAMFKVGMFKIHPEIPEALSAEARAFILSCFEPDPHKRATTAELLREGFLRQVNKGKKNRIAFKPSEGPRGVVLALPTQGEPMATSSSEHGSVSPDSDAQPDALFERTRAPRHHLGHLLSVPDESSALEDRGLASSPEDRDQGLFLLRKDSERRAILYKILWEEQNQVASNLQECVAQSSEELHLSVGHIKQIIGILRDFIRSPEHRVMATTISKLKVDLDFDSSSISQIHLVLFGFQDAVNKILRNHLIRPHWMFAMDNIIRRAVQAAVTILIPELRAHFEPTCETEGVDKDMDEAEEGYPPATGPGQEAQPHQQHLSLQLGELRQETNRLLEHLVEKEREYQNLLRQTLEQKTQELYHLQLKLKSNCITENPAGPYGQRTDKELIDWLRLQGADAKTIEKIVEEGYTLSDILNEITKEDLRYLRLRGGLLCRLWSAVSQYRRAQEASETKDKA
Briefly: Selectivity interaction (Ambit KINOMEscan and KiNATiv profiling in Jurkat cells) EUB0000090b MAP3K15. The experiment is classed as cell-based. The settings on record: at 1 µM.

For experiment [3], the target named is T2, Serine/threonine-protein kinase RIO3 (Homo sapiens) (UniProt O14730).
T2 sequence (whole entry): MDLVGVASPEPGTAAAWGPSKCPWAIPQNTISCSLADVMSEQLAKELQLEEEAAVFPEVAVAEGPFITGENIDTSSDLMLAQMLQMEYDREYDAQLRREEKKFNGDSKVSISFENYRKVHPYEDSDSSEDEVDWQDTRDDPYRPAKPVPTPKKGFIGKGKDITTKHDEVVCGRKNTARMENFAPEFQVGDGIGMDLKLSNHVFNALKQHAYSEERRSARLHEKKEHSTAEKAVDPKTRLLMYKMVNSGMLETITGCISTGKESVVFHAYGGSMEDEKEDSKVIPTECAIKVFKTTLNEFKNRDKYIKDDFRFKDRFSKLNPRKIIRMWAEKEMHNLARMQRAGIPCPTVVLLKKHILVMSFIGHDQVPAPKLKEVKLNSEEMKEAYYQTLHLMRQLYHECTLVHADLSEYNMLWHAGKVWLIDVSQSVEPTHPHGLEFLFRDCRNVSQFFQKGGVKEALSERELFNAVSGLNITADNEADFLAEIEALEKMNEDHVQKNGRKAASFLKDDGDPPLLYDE
The settings on record: at 10 µM.

The target in experiment [4] is T3, Protein arginine N-methyltransferase 7 (Homo sapiens) (UniProt Q9NVM4).
T3 sequence (whole entry): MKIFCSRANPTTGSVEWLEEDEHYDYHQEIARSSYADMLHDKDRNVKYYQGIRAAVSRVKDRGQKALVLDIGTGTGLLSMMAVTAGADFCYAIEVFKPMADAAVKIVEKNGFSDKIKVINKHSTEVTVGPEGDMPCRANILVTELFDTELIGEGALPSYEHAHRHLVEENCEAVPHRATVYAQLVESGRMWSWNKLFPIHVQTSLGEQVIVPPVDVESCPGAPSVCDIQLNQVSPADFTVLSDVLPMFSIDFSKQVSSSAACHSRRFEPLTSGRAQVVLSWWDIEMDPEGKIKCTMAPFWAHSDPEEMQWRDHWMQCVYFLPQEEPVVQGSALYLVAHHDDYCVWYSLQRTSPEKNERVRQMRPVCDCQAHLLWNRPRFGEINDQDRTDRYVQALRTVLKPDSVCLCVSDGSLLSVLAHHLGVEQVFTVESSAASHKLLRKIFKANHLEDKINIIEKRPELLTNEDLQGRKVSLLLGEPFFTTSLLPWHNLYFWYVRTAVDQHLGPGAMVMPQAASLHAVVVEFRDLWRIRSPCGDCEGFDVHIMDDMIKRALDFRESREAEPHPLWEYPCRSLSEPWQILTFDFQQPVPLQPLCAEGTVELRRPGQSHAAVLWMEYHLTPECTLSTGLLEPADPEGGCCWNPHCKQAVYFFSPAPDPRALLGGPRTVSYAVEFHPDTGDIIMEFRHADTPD
Briefly: Selectivity interaction (Methyltransferase screen (Scintillation proximity assays)) EUB0000255b PRMT7.

The target of experiment [5] is Mitogen-activated protein kinase 7 (Homo sapiens) (UniProt Q13164). Briefly: Selectivity interaction (KinomeScan (DiscoverX)) EUB0000666a MAPK7. The conditions noted are these: at 10 µM.
Mitogen-activated protein kinase 7 (Homo sapiens), sequence (Q13164 2-816 limits assumed): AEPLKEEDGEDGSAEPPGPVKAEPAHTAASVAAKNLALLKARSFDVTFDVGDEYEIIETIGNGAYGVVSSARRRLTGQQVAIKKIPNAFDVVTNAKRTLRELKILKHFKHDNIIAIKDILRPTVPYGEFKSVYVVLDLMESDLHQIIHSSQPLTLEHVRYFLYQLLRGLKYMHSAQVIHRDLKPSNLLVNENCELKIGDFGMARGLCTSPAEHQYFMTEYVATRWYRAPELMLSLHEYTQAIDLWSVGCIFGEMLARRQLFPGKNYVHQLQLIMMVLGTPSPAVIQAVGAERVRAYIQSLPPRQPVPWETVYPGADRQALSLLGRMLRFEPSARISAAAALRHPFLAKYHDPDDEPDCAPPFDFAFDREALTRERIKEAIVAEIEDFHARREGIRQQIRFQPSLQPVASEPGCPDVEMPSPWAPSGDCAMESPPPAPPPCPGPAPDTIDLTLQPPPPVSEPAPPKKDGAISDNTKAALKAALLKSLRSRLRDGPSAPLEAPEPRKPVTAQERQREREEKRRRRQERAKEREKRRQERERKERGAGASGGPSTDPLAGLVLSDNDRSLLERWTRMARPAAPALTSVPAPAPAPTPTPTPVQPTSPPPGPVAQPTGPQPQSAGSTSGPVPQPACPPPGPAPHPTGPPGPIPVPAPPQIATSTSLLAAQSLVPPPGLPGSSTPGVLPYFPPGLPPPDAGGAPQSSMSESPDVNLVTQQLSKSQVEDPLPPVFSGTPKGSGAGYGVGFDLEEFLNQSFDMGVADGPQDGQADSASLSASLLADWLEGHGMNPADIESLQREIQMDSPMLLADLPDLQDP
The target in experiment [6] is Epidermal growth factor receptor (Homo sapiens, UniProt P00533). Description: Selectivity interaction (Kinase panel (Invitrogen)) EUB0000639a EGFR. The settings on record: at 200 nM.
Epidermal growth factor receptor, sequence (P00533 whole entry): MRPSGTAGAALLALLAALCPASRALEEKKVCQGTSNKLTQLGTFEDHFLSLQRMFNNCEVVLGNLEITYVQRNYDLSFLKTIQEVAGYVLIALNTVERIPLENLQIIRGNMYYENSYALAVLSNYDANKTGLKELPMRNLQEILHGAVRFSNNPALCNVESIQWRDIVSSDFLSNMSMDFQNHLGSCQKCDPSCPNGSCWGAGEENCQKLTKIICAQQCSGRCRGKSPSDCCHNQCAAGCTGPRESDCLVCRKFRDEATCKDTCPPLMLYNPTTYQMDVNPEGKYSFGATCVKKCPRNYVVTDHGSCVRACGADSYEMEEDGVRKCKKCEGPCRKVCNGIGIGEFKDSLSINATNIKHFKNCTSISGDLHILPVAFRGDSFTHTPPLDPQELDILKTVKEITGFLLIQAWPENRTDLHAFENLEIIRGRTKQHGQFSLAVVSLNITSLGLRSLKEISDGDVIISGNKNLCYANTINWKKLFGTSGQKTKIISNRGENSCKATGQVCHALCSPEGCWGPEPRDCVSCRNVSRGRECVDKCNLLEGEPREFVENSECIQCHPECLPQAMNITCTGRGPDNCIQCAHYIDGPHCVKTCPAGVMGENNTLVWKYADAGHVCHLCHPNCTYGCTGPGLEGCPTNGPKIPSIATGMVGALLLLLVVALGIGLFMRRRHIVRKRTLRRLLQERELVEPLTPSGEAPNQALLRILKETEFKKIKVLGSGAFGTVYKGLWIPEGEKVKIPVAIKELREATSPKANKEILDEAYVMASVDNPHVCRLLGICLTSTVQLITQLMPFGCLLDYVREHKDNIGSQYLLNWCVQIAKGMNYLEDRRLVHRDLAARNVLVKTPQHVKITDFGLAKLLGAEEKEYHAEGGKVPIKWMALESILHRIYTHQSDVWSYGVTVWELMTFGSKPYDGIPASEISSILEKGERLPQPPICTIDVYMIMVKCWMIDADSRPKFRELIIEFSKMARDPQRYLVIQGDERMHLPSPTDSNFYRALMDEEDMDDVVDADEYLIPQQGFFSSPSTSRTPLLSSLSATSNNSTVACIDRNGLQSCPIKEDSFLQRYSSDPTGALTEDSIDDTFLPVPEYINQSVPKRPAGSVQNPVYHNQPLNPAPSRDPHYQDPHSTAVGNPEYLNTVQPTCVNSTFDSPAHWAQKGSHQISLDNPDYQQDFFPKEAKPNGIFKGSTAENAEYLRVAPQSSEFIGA
For experiment [7], the target named is Serine/threonine-protein kinase MARK2 (Homo sapiens) (UniProt Q7KZI7). Briefly: Selectivity interaction (ActivX KiNativ screen (kinase selectivity in THP-1 cell lysates)) EUB0000639a MARK2. The settings on record: lysate, at 5 µM. The experiment is classed as subcellular.
Serine/threonine-protein kinase MARK2 (Homo sapiens), sequence (Q7KZI7 whole entry): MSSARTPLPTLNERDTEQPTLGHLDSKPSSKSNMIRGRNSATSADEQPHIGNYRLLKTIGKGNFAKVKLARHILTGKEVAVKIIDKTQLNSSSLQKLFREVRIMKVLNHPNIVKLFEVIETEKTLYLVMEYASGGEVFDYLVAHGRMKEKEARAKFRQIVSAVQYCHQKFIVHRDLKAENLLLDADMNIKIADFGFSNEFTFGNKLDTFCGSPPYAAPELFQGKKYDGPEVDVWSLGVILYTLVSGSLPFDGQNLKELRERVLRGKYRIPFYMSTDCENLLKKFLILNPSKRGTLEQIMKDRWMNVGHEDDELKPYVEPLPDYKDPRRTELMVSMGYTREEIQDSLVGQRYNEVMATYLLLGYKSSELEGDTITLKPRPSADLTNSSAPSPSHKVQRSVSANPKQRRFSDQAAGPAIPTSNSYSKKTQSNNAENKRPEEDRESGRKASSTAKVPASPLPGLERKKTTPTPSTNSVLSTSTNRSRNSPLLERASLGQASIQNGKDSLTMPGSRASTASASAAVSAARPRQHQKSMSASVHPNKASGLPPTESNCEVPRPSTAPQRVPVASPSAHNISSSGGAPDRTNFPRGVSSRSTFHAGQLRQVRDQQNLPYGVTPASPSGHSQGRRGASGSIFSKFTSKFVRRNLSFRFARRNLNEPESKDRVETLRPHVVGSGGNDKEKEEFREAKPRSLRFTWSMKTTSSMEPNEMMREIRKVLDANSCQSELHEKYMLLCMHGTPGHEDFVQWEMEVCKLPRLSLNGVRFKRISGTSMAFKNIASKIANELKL
The target of experiment [8] is Dual specificity mitogen-activated protein kinase kinase 1 (Homo sapiens, UniProt Q02750). Description: Selectivity interaction (Kinase panel (DSF assay)) EUB0001559a MAP2K1.
Dual specificity mitogen-activated protein kinase kinase 1, sequence (Q02750 whole entry): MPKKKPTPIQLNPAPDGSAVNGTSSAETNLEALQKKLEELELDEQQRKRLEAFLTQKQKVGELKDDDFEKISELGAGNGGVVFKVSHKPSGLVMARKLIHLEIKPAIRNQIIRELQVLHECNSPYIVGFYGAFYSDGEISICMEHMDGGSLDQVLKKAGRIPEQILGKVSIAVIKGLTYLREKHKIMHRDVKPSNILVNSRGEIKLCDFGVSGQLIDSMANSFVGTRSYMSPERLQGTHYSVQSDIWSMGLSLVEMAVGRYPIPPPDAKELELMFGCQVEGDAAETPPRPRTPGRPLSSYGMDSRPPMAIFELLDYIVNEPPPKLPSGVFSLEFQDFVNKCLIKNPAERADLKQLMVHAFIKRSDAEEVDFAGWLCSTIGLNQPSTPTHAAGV

A value given as a limit tells only on which side of the number the result lay.

Tyrosine-protein kinase ABL2, sequence (P42684 whole entry): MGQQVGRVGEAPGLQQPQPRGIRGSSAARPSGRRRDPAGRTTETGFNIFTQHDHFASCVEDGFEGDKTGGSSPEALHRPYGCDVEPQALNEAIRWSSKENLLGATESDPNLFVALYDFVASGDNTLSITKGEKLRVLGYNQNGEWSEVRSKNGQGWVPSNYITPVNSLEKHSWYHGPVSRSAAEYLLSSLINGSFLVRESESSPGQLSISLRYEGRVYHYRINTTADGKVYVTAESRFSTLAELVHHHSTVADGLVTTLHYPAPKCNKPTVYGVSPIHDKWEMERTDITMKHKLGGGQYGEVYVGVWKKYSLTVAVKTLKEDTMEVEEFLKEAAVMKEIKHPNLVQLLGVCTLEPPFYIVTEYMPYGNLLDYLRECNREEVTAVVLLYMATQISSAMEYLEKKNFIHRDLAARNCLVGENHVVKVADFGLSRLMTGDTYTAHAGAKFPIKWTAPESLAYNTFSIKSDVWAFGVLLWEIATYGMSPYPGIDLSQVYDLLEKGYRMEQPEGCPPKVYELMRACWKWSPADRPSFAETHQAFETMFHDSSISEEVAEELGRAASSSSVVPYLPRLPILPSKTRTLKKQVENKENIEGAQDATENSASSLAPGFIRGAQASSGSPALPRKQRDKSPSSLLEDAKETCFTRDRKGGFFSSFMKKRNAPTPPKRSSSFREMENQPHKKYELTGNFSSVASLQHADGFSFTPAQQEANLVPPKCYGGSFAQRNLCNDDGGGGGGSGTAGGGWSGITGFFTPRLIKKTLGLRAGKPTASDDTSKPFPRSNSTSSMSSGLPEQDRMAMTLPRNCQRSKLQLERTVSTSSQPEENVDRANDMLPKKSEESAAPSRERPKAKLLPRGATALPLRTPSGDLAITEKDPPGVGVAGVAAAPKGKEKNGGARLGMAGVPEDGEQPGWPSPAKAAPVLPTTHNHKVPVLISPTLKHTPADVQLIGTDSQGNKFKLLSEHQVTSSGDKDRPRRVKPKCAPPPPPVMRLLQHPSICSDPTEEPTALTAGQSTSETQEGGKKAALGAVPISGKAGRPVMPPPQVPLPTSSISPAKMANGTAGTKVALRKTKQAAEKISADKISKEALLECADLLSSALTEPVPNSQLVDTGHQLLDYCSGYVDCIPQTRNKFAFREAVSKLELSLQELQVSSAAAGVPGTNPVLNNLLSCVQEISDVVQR

As to `Cc1cc([C@@H](C)Nc2ccccc2C(=O)O)c2nc(N3CCOCC3)cc(=O)n2c1` [AZD-6482], the % of control in experiment [1] worked out at 95%. For `CN(C)C/C=C/C(=O)Nc1ccc(C(=O)N2CCCC(Nc3ncc(Cl)c(-c4c[nH]c5ccccc45)n3)C2)cc1` (centres undefined), the % of control in experiment [2] was 73%.

For the compound `CCN(CC)CCCCNc1ncc2cc(-c3cc(OC)cc(OC)c3)c(NC(=O)NC(C)(C)C)nc2n1`, the % of control in experiment [3] stood at 100%. Turning to `COCCN1CCC(c2cc(CN(C)C(=O)c3cccc(Oc4ccccc4)c3)ccn2)CC1`, the % activity was over 95% in experiment [4] (at 1 µM) and over 90% in experiment [4] (at 10 µM). `O=C(NOC[C@H](O)CO)c1ccc(F)c(F)c1Nc1ccc(I)cc1F`: the % of control in experiment [5] was determined as 88%. In the case of `CC[C@@H]1[C@H](F)C(=O)N[C@@H]1COc1nccc2cc(C(N)=O)c(OC)cc12` [ZIMLOVISERTIB], the figures for the % of inhibition in experiment [6] and in experiment [7] were 1.25% and 51.5%, respectively. With `CN(C(=O)c1cnn2cccnc12)c1cc2c(cc1N1CCOCC1)C(=O)N(C[C@@H](F)C(C)(C)O)C2`, the dTM in experiment [8] was -0.8 K.
